These results are taken from patent publication US20060264460A1 (Wyeth, priority 2005, published 2006).

Broadly, the IC50 is the concentration that gives 50% inhibition.

The target of the test is T1, human Cot/Tpl2 kinase (Homo sapiens, UniProt P41279).
T1 construct: human Cot/Tpl2 kinase construct encoding residues 30-398; 6His (N); made in house; host or cells: Sf9 insect cells, baculovirus system (BD Biosciences)
T1 sequence (P41279 30-398): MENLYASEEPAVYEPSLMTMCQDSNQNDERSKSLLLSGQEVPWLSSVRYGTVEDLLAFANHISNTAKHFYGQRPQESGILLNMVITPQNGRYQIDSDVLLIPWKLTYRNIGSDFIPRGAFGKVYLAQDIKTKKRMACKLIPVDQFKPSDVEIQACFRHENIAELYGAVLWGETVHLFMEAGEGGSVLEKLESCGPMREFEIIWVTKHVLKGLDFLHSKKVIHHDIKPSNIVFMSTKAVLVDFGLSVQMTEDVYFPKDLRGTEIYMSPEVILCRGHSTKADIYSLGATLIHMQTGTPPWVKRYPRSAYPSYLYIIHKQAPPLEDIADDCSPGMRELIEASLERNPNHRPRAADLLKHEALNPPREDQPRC
As to the kind of experiment: Tpl2/Cot kinase assay: GST-MEK1 phosphorylation detected by ELISA (DELFIA Eu). The following applies: Table 2; Tpl2/Cot kinase, GST-MEK1 substrate, 50 uM ATP. Format: biochemical. In outline: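 Substrate phosphorylation (GST-MEK1 Ser217/221) quantified by DELFIA europium ELISA, yielding IC50 values. Reaction: 1 h at 30° C, pH 7.2 MOPS buffer, 50 uM ATP, 35 nM GST-MEK1, 0.4 nM monomeric His-Tpl2 purified from Sf9 cells, compounds at 1% final DMSO; stopped with EDTA.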
(In general: An ELISA detects its analyte on a solid surface through an enzyme-linked reagent.)
Compound `Cn1nc(C(C)(C)C)cc1Nc1c(C#N)cnc2ccc(N)cc12` [Example 425] yielded an IC50 of more than 40000 nM.

Consider `Cn1ccnc1CNc1cc(Cl)c2ncc(C#N)c(Nc3ccc(F)c(Cl)c3)c2c1` [Example 426], for which 3.2 nM corresponded to half-maximal inhibition (IC50). This lies in the single-digit nanomolar range.

Turning to `N#Cc1cnc2c(Cl)cc(NCc3cc[nH]n3)cc2c1Nc1ccc(F)c(Cl)c1` [Example 427], the IC50 came out at 47 nM.

`N#Cc1cnc2c(Br)cc(NCc3ccc(C(O)(C(F)(F)F)C(F)(F)F)cc3)cc2c1Nc1ccc(F)c(Cl)c1` [Example 428]: the IC50 is more than 40000 nM.

In the case of `Cc1cc(CNc2cc(Cl)c3ncc(C#N)c(Nc4ccc(F)c(Cl)c4)c3c2)n[nH]1` [Example 429], the IC50 turned out to be 100 nM.

In turn, `Cc1cc(CNc2cc(Cl)c3ncc(C#N)c(Nc4ccc(F)c(Cl)c4)c3c2)n(C)n1` [Example 430] showed an IC50 of 120 nM.

`Cc1nc(CNc2cc(Cl)c3ncc(C#N)c(Nc4ccc(F)c(Cl)c4)c3c2)c(C)[nH]1` [Example 431] returned an IC50 of 220 nM.

The compound `COCc1nc(CNc2cc(Cl)c3ncc(C#N)c(Nc4ccc(F)c(Cl)c4)c3c2)c[nH]1` [Example 432] showed an IC50 of 260 nM. The IC50 values of the last two compounds are within 1.5-fold of each other.

`N#Cc1cnc2c(Br)cc(NCc3ccnn3-c3ccccc3)cc2c1Nc1ccc(F)c(Cl)c1` [Example 433] had an IC50 of 250 nM.

With `N#Cc1cnc2c(Br)cc(NCc3cnn(-c4ccccc4)n3)cc2c1Nc1ccc(F)c(Cl)c1` [Example 434], the IC50 was more than 40000 nM.

As for `C[Si](C)(C)c1n[nH]nc1CNc1cc(Br)c2ncc(C#N)c(Nc3ccc(F)c(Cl)c3)c2c1` [Example 435], the IC50 came to 21 nM.

`N#Cc1cnc2c(Br)cc(NCc3cncn3O)cc2c1Nc1ccc(F)c(Cl)c1` [Example 436]: the IC50 is 150 nM. This IC50 lies about 7.1-fold higher than the previous one.

`N#Cc1cnc2c(F)cc(NCc3cncn3O)cc2c1Nc1ccc(F)c(Cl)c1` [Example 437]: 200 nM corresponded to half-maximal inhibition (IC50).

`N#Cc1cnc2c(Cl)cc(NCc3cncn3O)cc2c1Nc1ccc(F)c(Cl)c1` [Example 438]: the IC50 came to 110 nM.

The compound `Cn1cncc1CNc1cc(Cl)c2ncc(C#N)c(Nc3ccc(F)c(Cl)c3)c2c1` [Example 439] came in with an IC50 of 220 nM. This IC50 lies about 2-fold higher than the previous one.

`N#Cc1cnc2c(Cl)cc(NCc3csnn3)cc2c1Nc1ccc(F)c(Cl)c1` [Example 440]: half-maximal inhibition (IC50) was put at 49 nM.

Regarding `Cc1[nH]c(C2CCCC2)nc1CNc1cc(Cl)c2ncc(C#N)c(Nc3ccc(F)c(Cl)c3)c2c1` [Example 441], the IC50 was found to be 1900 nM.

Compound `COC(=O)c1cnc(CNc2cc(Cl)c3ncc(C#N)c(Nc4ccc(F)c(Cl)c4)c3c2)n1C` [Example 442] returned an IC50 of 3400 nM.

In turn, `CCCc1[nH]cnc1CNc1cc(Cl)c2ncc(C#N)c(Nc3ccc(F)c(Cl)c3)c2c1` [Example 443] returned an IC50 of 25 nM.

On to `Cc1[nH]c(-c2cccnc2)nc1CNc1cc(Cl)c2ncc(C#N)c(Nc3ccc(F)c(Cl)c3)c2c1` [Example 444], for which the IC50 amounted to 20600 nM.

`COc1ccsc1CNc1cc(Cl)c2ncc(C#N)c(Nc3ccc(F)c(Cl)c3)c2c1` [Example 445]: the IC50 amounted to 1100 nM.

`Cn1nccc1CNc1cc(Br)c2ncc(C#N)c(Nc3ccc(F)c(Cl)c3)c2c1` [Example 446] registered an IC50 of 98 nM.

`N#Cc1cnc2c(Cl)cc(NCC(=O)c3ccccc3)cc2c1Nc1ccc(F)c(Cl)c1` [Example 447] gave a concentration for half-maximal inhibition (IC50) of 870 nM.

`N#Cc1cnc2c(Br)cc(NCc3n[nH]c4c3CCCC4)cc2c1Nc1ccc(F)c(Cl)c1` [Example 448] came in with an IC50 of 370 nM.

`Cc1cc(CNc2cc(Br)c3ncc(C#N)c(Nc4ccc(F)c(Cl)c4)c3c2)nn1C` [Example 449] gave an IC50 of 5500 nM.

Compound `CC(C)(CNc1cc(Cl)c2ncc(C#N)c(Nc3ccc(F)c(Cl)c3)c2c1)N1CCOCC1` [Example 450] displayed an IC50 of 2400 nM.

As to `N#Cc1cnc2c(I)cc(NCc3cnc[nH]3)cc2c1Nc1ccc(F)c(Cl)c1` [Example 452], 51 nM corresponded to half-maximal inhibition (IC50).

Compound `Cn1nc(CNc2cc(Br)c3ncc(C#N)c(Nc4ccc(F)c(Cl)c4)c3c2)cc1-c1ccccc1` [Example 453] displayed an IC50 of more than 40000 nM.

Regarding `N#Cc1cnc2c(Br)cc(NCc3cc(-c4ccccc4)[nH]n3)cc2c1Nc1ccc(F)c(Cl)c1` [Example 454], the IC50 is 330 nM.

For the compound `N#Cc1cnc2c(Br)cc(NCc3cc(-c4ccncc4)[nH]n3)cc2c1Nc1ccc(F)c(Cl)c1` [Example 455], the concentration for half-maximal inhibition (IC50) is 13500 nM.

`Cn1ncc(Br)c1CNc1cc(Br)c2ncc(C#N)c(Nc3ccc(F)c(Cl)c3)c2c1` [Example 456] came in with an IC50 of 1000 nM.

As for `C=Cc1cc(NCc2cnc[nH]2)cc2c(Nc3ccc(F)c(Cl)c3)c(C#N)cnc12` [Example 457], half-maximal inhibition (IC50) was put at 170 nM.

For the compound `N#Cc1cnc2c(Cl)cc(NCc3cccc(O)c3O)cc2c1Nc1ccc(F)c(Cl)c1` [Example 458], inhibition was half-maximal at 1300 nM (IC50). Against the preceding compound, the IC50 is about 7.6-fold higher.

`CC(=O)c1cc(NCc2cnc[nH]2)cc2c(Nc3ccc(F)c(Cl)c3)c(C#N)cnc12` [Example 459]: inhibition was half-maximal at 23 nM (IC50).

In turn, `CN(C)CC#Cc1ncn(COCc2ccccc2)c1CNc1cc(Cl)c2ncc(C#N)c(Nc3ccc(F)c(Cl)c3)c2c1` [Example 460] displayed an IC50 of 2000 nM. This IC50 lies about 87-fold higher than the previous one.

`CN(C)CCCc1nc[nH]c1CNc1cc(Cl)c2ncc(C#N)c(Nc3ccc(F)c(Cl)c3)c2c1` [Example 461] registered an IC50 of 130 nM.

On to `N#Cc1cnc2c(CCO)cc(NCc3cnc[nH]3)cc2c1Nc1ccc(F)c(Cl)c1` [Example 462], for which the IC50 worked out at 1200 nM.

For the compound `CC(O)c1cc(NCc2cnc[nH]2)cc2c(Nc3ccc(F)c(Cl)c3)c(C#N)cnc12` (centres unmarked) [Example 463], the concentration for half-maximal inhibition (IC50) is 260 nM. Compared with the last compound, the IC50 is about 4.6-fold lower.

With `N#Cc1cnc2c(CO)cc(NCc3cnc[nH]3)cc2c1Nc1ccc(F)c(Cl)c1` [Example 464], inhibition was half-maximal at 570 nM (IC50).

The compound `N#Cc1cnc2c(Cl)cc(NCC(=O)O)cc2c1Nc1ccc(F)c(Cl)c1` [Example 465] displayed an IC50 of 51 nM.

In turn, `Cn1nnc(CNc2cc(Cl)c3ncc(C#N)c(Nc4ccc(F)c(Cl)c4)c3c2)n1` [Example 466] returned an IC50 of 230 nM.

`Cn1nnc(CCNc2cc(Cl)c3ncc(C#N)c(Nc4ccc(F)c(Cl)c4)c3c2)n1` [Example 467] registered an IC50 of 1200 nM.

For the compound `CN1CCN(C(=O)CNc2cc(Cl)c3ncc(C#N)c(Nc4ccc(F)c(Cl)c4)c3c2)CC1` [Example 468], half-maximal inhibition (IC50) required 360 nM.

Compound `Cn1nnnc1CCNc1cc(Cl)c2ncc(C#N)c(Nc3ccc(F)c(Cl)c3)c2c1` [Example 469] had a half-inhibitory concentration (IC50) of 170 nM.

The compound `N#Cc1cnc2c(Cl)cc(NCC(=O)N3CCNCC3)cc2c1Nc1ccc(F)c(Cl)c1` [Example 470] yielded a concentration for half-maximal inhibition (IC50) of 420 nM. Compared with the last compound, the IC50 is about 2.5-fold higher.

`CON(C)C(=O)CNc1cc(Cl)c2ncc(C#N)c(Nc3ccc(F)c(Cl)c3)c2c1` [Example 471] displayed an IC50 of more than 40000 nM.

The compound `CONC(=O)CNc1cc(Cl)c2ncc(C#N)c(Nc3ccc(F)c(Cl)c3)c2c1` [Example 472] came in with an IC50 of 160 nM.

In turn, `CNC(=O)CNc1cc(Cl)c2ncc(C#N)c(Nc3ccc(F)c(Cl)c3)c2c1` [Example 473] yielded an IC50 of 470 nM.

`CN(C)C(=O)CNc1cc(Cl)c2ncc(C#N)c(Nc3ccc(F)c(Cl)c3)c2c1` [Example 474] returned a half-maximal inhibitory concentration (IC50) of 1700 nM. This IC50 lies about 3.6-fold higher than the previous one.

`CCOC(=O)CNc1cc(Cl)c2ncc(C#N)c(Nc3ccc(F)c(Cl)c3)c2c1` [Example 475] had an IC50 of 1400 nM.

The compound `CCc1[nH]cnc1CNc1cc(Cl)c2ncc(C#N)c(Nc3ccc(F)c(Cl)c3)c2c1` [Example 476] registered an IC50 of 16 nM.

Take `N#Cc1cnc2c(Br)cc(N(Cc3cn(CCN4CCOCC4)nn3)Cc3cn(CCN4CCOCC4)nn3)cc2c1Nc1ccc(F)c(Cl)c1` [Example 477]: the IC50 is more than 40000 nM.

`Cn1cnc(CNc2cc(Cl)c3ncc(C#N)c(Nc4ccc(F)c(Cl)c4)c3c2)n1` [Example 478] returned a half-maximal inhibitory concentration (IC50) of 530 nM.

`N#Cc1cnc2c(Br)cc(NCc3cn(C45CC6CC(CC(C6)C4)C5)nn3)cc2c1Nc1ccc(F)c(Cl)c1` [Example 479] returned an IC50 of 1700 nM.

Turning to `CN(C)CCCn1cc(CNc2cc(Br)c3ncc(C#N)c(Nc4ccc(F)c(Cl)c4)c3c2)nn1` [Example 480], the IC50 is 20 nM. Compared with the last compound, the IC50 is about 85-fold lower.

`CN(C)CCn1cc(CNc2cc(Br)c3ncc(C#N)c(Nc4ccc(F)c(Cl)c4)c3c2)nn1` [Example 481]: the IC50 was 24 nM.

Consider `N#Cc1cnc2c(Br)cc(NCc3cncn3CCN3CCOCC3)cc2c1Nc1ccc(F)c(Cl)c1` [Example 482], for which the IC50 amounted to 160 nM.

`N#Cc1cnc2c(Cl)cc(NCc3nc[nH]n3)cc2c1Nc1ccc(F)c(Cl)c1` [Example 483] had an IC50 of 100 nM. This IC50 lies about 1.6-fold lower than the previous one.

As for `N#Cc1cnc2c(Br)cc(NCc3nc[nH]n3)cc2c1Nc1ccc(F)c(Cl)c1` [Example 484], the IC50 turned out to be 110 nM.

For `Cn1cnc(CNc2cc(Br)c3ncc(C#N)c(Nc4ccc(F)c(Cl)c4)c3c2)n1` [Example 486], inhibition was half-maximal at 200 nM (IC50).

Take `CC(O)Cn1cc(CNc2cc(Br)c3ncc(C#N)c(Nc4ccc(F)c(Cl)c4)c3c2)nn1` (centres unmarked) [Example 487]: the IC50 was 11 nM.

As to `N#Cc1cnc2c(Br)cc(NCc3cn(CCN4CCOCC4)cn3)cc2c1Nc1ccc(F)c(Cl)c1` [Example 488], the midpoint of inhibition, the IC50, lay at 41 nM.

Turning to `N#Cc1cnc2c(Cl)cc(NCc3cncn3CCN3CCOCC3)cc2c1Nc1ccc(F)c(Cl)c1` [Example 489], the IC50 amounted to 62 nM.

Take `N#Cc1cnc2c(Cl)cc(NCc3cn(CCN4CCOCC4)cn3)cc2c1Nc1ccc(F)c(Cl)c1` [Example 490]: 33 nM corresponded to half-maximal inhibition (IC50).

The compound `N#Cc1cnc2c(Cl)cc(NCc3cn(CC(F)(F)F)nn3)cc2c1Nc1ccc(F)c(Cl)c1` [Example 491] had an IC50 of 23 nM. This IC50 and that of the compound before are within 1.5-fold of each other.

On to `CC(C)(C)OC(=O)N1CCC(n2cc(CNc3cc(Br)c4ncc(C#N)c(Nc5ccc(F)c(Cl)c5)c4c3)nn2)CC1` [Example 493], for which half-maximal inhibition (IC50) was put at 250 nM.

With `CC(C)(C)OC(=O)N1CCC(Cn2cc(CNc3cc(Br)c4ncc(C#N)c(Nc5ccc(F)c(Cl)c5)c4c3)nn2)CC1` [Example 494], inhibition was half-maximal at 170 nM (IC50).

`N#Cc1cnc2c(Br)cc(NCc3cn(Cc4ccncc4)nn3)cc2c1Nc1ccc(F)c(Cl)c1` [Example 495] returned an IC50 of 4.8 nM.
